Assay results as given in PubChem BioAssay AID330 (DTP/NCI, 2004).
Several values for one entry are separate records, joined by “and”; a condition that tells them apart may be missing. Equal values may be shown once. Toxic doses and inconclusive results are not listed. How the source made its calls: active means survival T/C of 150% or more; inactive means T/C below 125% in these data.

Test system: P388 leukemia ip, CD2F1 mice, survival T/C
Assay: NCI In Vivo Anticancer Drug Screen. Data for tumor model P388 Leukemia (intraperitoneal) in CD2F1 (CDF1) mice
Conditions: endpoint: median survival time, higher = longer survival
Outline: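 Mice carrying the transplanted tumor received test compound or vehicle. Survival was recorded in each group, and the value is the treated-group measurement divided by that of the vehicle-treated control group.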

[1] = dose: 60.0 mg/kg/injection, schedule: Q01DX005 (ip), vehicle: saline
[2] = dose: 120.0 mg/kg/injection, schedule: Q01DX005 (ip), vehicle: saline
[3] = dose: 60.0 mg/kg/injection, schedule: Q01DX005 (ip), vehicle: saline with Tween-80
[4] = dose: 120.0 mg/kg/injection, schedule: Q01DX005 (ip), vehicle: saline with Tween-80
[5] = dose: 240.0 mg/kg/injection, schedule: Q01DX005 (ip), vehicle: saline with Tween-80
[6] = dose: 25.0 mg/kg/injection, schedule: Q01DX009 (ip), vehicle: Klucel (hydroxypropylcellulose) (HPC)
[7] = dose: 50.0 mg/kg/injection, schedule: Q01DX009 (ip), vehicle: Klucel (hydroxypropylcellulose) (HPC)
[8] = dose: 50.0 mg/kg/injection, schedule: Q01DX005 (ip), vehicle: Klucel (hydroxypropylcellulose) (HPC)
[9] = dose: 100.0 mg/kg/injection, schedule: Q01DX005 (ip), vehicle: Klucel (hydroxypropylcellulose) (HPC)
[10] = dose: 200.0 mg/kg/injection, schedule: Q01DX005 (ip), vehicle: Klucel (hydroxypropylcellulose) (HPC)

Measured: T/C

CC(C)(F)c1nc2ncncc2[nH]c1=O
inactive: dose: 100.0 mg/kg/injection, schedule: Q01DX001 (ip), vehicle: saline with Tween-80 103 % of control | dose: 200.0 mg/kg/injection, schedule: Q01DX001 (ip), vehicle: saline with Tween-80 103 % of control | dose: 400.0 mg/kg/injection, schedule: Q01DX001 (ip), vehicle: saline with Tween-80 93 % of control

O=P1(O)OC[C@H]2CCC[C@@H]2O1
inactive: [1] 106 % of control | [2] 97 % of control

CCOc1ccc2ccc3cccnc3c2n1
inactive: [3] 96 % of control | [4] 94 % of control | [5] 99 % of control

Cc1no[n+]([O-])c1NC(=O)OCc1ccccc1
inactive: dose: 7.5 mg/kg/injection, schedule: Q01DX005 (ip), vehicle: saline with Tween-80 96 % of control | dose: 15.0 mg/kg/injection, schedule: Q01DX005 (ip), vehicle: saline with Tween-80 100 % of control | dose: 30.0 mg/kg/injection, schedule: Q01DX005 (ip), vehicle: saline with Tween-80 99 % of control | [3] 107 % of control | [4] 101 % of control | [5] 100 % of control

COc1ccc(C(CC(=O)c2ccccc2)[Se]c2ccccc2)cc1 (stereo not given)
inactive: [6] 105 % of control | [7] 106 % of control | dose: 100.0 mg/kg/injection, schedule: Q01DX009 (ip), vehicle: Klucel (hydroxypropylcellulose) (HPC) 105 % of control

Cc1ccc(NC(=S)C#N)cc1Cl
inactive: dose: 6.25 mg/kg/injection, schedule: Q01DX005 (ip), vehicle: saline with Tween-80 90 % of control | dose: 12.5 mg/kg/injection, schedule: Q01DX005 (ip), vehicle: saline with Tween-80 92 % of control | dose: 25.0 mg/kg/injection, schedule: Q01DX005 (ip), vehicle: saline with Tween-80 90 % of control

N#Cc1c(-c2ccccc2)c(C#N)c(=O)n(N)c1N
inactive: [8] 91 % of control and 93 % of control | [9] 86 % of control | [10] 86 % of control

Cc1cc(C)nc(NS(=O)(=O)c2ccc(NC(=O)c3cccnc3Nc3cccc(Cl)c3)cc2)n1
inactive: [3] 105 % of control | [4] 115 % of control | [5] 112 % of control

CCC/C(=N/NC(N)=O)C(OC)OC
inactive: dose: 37.5 mg/kg/injection, schedule: Q01DX009 (ip), vehicle: saline 92 % of control | dose: 75.0 mg/kg/injection, schedule: Q01DX009 (ip), vehicle: saline 90 % of control

O=C(O)CP(=O)(O)O
inactive: dose: 4.0 mg/kg/injection, schedule: Q01DX009 (ip), vehicle: saline 94 % of control | dose: 6.25 mg/kg/injection, schedule: Q01DX009 (ip), vehicle: saline 100 % of control | dose: 8.0 mg/kg/injection, schedule: Q01DX009 (ip), vehicle: saline 99 % of control | dose: 12.5 mg/kg/injection, schedule: Q01DX009 (ip), vehicle: saline 101 % of control | dose: 16.0 mg/kg/injection, schedule: Q01DX009 (ip), vehicle: saline 91 % of control | dose: 25.0 mg/kg/injection, schedule: Q01DX009 (ip), vehicle: saline 106 % of control | dose: 32.0 mg/kg/injection, schedule: Q01DX009 (ip), vehicle: saline 100 % of control | dose: 50.0 mg/kg/injection, schedule: Q01DX009 (ip), vehicle: saline 103 % of control | dose: 64.0 mg/kg/injection, schedule: Q01DX009 (ip), vehicle: saline 102 % of control | dose: 100.0 mg/kg/injection, schedule: Q01DX009 (ip), vehicle: saline 103 % of control | dose: 128.0 mg/kg/injection, schedule: Q01DX009 (ip), vehicle: saline 94 % of control | dose: 200.0 mg/kg/injection, schedule: Q01DX009 (ip), vehicle: saline 106 % of control | dose: 400.0 mg/kg/injection, schedule: Q01DX009 (ip), vehicle: saline 101 % of control | dose: 800.0 mg/kg/injection, schedule: Q01DX009 (ip), vehicle: saline 106 % of control

Cc1cccc2c(=O)[nH]c(=O)[nH]c12
inactive: [8] 93 % of control | [9] 89 % of control | [10] 89 % of control

O=P1(N(CCCl)CCCl)Nc2cccc3cccc(c23)N1
inactive: dose: 6.25 mg/kg/injection, schedule: Q01DX009 (ip), vehicle: Klucel (hydroxypropylcellulose) (HPC) 110 % of control and 111 % of control | dose: 12.5 mg/kg/injection, schedule: Q01DX009 (ip), vehicle: Klucel (hydroxypropylcellulose) (HPC) 103 % of control and 114 % of control | [6] 102 % of control and 119 % of control | [7] 120 % of control

C/C(=C\C=C1\N(C)c2ccccc2C1(C)C)N=C(C#N)C#N
inactive: dose: 50.0 mg/kg/injection, schedule: Q04DX003 (ip), vehicle: saline with Tween-80 93 % of control | dose: 100.0 mg/kg/injection, schedule: Q04DX003 (ip), vehicle: saline with Tween-80 91 % of control | dose: 200.0 mg/kg/injection, schedule: Q04DX003 (ip), vehicle: saline with Tween-80 96 % of control

COc1nc2c(nnn2C2OC(CO)C(O)C(O)C2O)c(=O)[nH]1 (stereo not given)
inactive: [1] 97 % of control | [2] 99 % of control | dose: 240.0 mg/kg/injection, schedule: Q01DX005 (ip), vehicle: saline 100 % of control

CC(=O)Oc1cc2c(cc1C(Nc1ccccn1)c1ccc3c(c1)OCO3)OCO2 (stereo not given)
inactive: [3] 98 % of control | [4] 92 % of control | [5] 97 % of control

O=C1N(CCc2ccccc2)CCCS1(=O)=O
inactive: dose: 50.0 mg/kg/injection, schedule: Q01DX005 (ip), vehicle: saline with Tween-80 115 % of control | dose: 100.0 mg/kg/injection, schedule: Q01DX005 (ip), vehicle: saline with Tween-80 117 % of control
